Values joined by “and” are separate entries in the source; they are usually repeats but may differ in a detail not shown here. Equal values may be shown once. Read-outs that look alike come from different tables or passages of the source.
Assay: Dog PK study #1 (Compound A IV and PO, propylene glycol formulation)
Format: in vivo, beagle dogs
Settings: for Vd: read-out: Vss—obs
Text: The purpose of this study was to examine the pharmacokinetics of Compound A in beagle dogs. Four beagle dog studies were undertaken, one where Compound A was formulated in a propylene glycol based formulation (Dog PK study #1-PO and IV), a second where Compound A was formulated in a HPBCD based formulation (Dog PK study #2-IV), a third where Compound A was formulated in a 5% DMSO/15% PEG-400/80% (10% VE-TPGS) formulation (Dog PK study #3-PO), and a fourth where Compound A was formulated in […]/15% PEG-400/80% (10% VE-TPGS) formulation (Dog PK study #4-PO).
For Dog PK study #1, two solutions of different concentrations of Compound A were prepared in 20% propylene glycol/20% Vitamin E TPGS/60% water as outlined in Table 2A in Experimental Method A. The solutions of Compound A in 20% propylene glycol/20% Vitamin E TPGS/60% water were prepared freshly prior to use. The Compound A solutions administered were then administered to animals either intravenously (IV) or orally (PO) and animals were then monitored over a 24 h period (Table 3B). Body weight was recorded prior to dosing, and detailed clinical observations were made prior to dosing and throughout the study, as needed.
Blood samples (~0.3 mL) were collected according to a schedule (shown below) by venipuncture of peripheral veins except for the dosing vein, and EDTA-K2 was used as anticoagulant. Within 30 minutes of collection, the samples were centrifuged at approximately 2000 times g-force for 10 minutes at 4° C. to obtain blood plasma. The plasma samples were immediately divided into two aliquots (~75 μL each), transferred to a cryogenic vial, and stored in a freezer at −75±15° C. prior to analysis.
Blood samples for IV were collected at 0.083, 0.25, 0.5, 1, 2, 4, 8, 24 h and blood samples for PO were collected at 0.25, 0.5, 1, 2, 4, 8, and 24 h following the initial dosing (0 h).
The concentration of Compound A in the blood plasma was determined through liquid chromatography-mass spectrometry (LC-MS). The experiments were conducted on a Shimadzu HPLC(DGU-20A5R; LC-30AD; SIL-30AC; Rack Changer II; CTO-30A; and CBM-20A) and AB API 5500+LC/MS/MS instrument with an Agilent Poroshell EC-C18 4 μm (50×2.1 mm) column. A gradient of 95% water (0.1% formic acid)/95% acetonitrile (0.1% formic acid) was used as the mobile phase. The sample injection volume was 10 μL, and the flow rate was 0.6 mL/min. The gathered data were used for pharmacokinetic calculations using T1/2, C0, AUClast, AUCinf, MRTinf, Cl, Vss, and Number of Points for Regression as parameters.
The desired serial concentrations of working solutions were achieved by diluting stock solution of analyte with 50% acetonitrile in water solution. 5 μL of working solutions (5, 10, 20, 50, 100, 500, 1000, 5000, 10000 ng/mL) were added to 50 μL of the blank Beagle Dogs plasma to achieve calibration standards of 0.5~1000 ng/ml (0.5, 1, 2, 5, 10, 50, 100, 500, 1000 ng/ml) in a total volume of 55 μL. Five quality control samples at 1 ng/ml, 2 ng/ml, 5 ng/ml, 50 ng/mL and 800 ng/ml for plasma were prepared independently of those used for the calibration curves. These QC samples were prepared on the day of analysis in the same way as calibration standards.
55 μL standards, 55 μL QC samples and 55 μL unknown samples (50 μl plasma with 5 μL blank solution were added to 200 μL of acetonitrile containing IS mixture (verapamil) for precipitating protein respectively. Then the samples were vortexed for 30 s. After centrifugation at 4° C., 3900 rpm for 15 min, the supernatant was diluted 3 times with water. 10 μL of diluted supernatant was injected into the LC/MS/MS system for quantitative analysis.

[1] = IV 1 mg/kg, individual animals, 1 mg/kg
[2] = beagle, dog, plasma, iv, 1 mg/kg, IV 1 mg/kg, individual animals, read-out: Plasma concentration
[3] = beagle, dog, plasma, iv, 1 mg/kg, IV 1 mg/kg, mean, read-out: Average plasma concentration
[4] = beagle, dog, plasma, iv, 1 mg/kg, IV 1 mg/kg, mean
[5] = beagle, dog, plasma, iv, 1 mg/kg, IV 1 mg/kg, individual animals
[6] = beagle, dog, plasma, po, 5 mg/kg, oral 5 mg/kg, individual animals, read-out: Plasma concentration
[7] = beagle, dog, plasma, po, 5 mg/kg, oral 5 mg/kg, mean, read-out: Average plasma concentration
[8] = beagle, dog, plasma, po, 5 mg/kg, oral 5 mg/kg, mean
[9] = beagle, dog, plasma, po, 5 mg/kg, oral 5 mg/kg, individual animals
[10] = oral 5 mg/kg, individual animals, 5 mg/kg

Cn1cc(-c2ccccc2)c(-c2cn(C)c(=O)c3[nH]c(-c4cnn(C(F)(F)F)c4)cc23)cc1=O [Compound A, 6-methyl-4-(1-methyl-2-oxo-5-phenyl-1,2-dihydropyridin-4-yl)-2-(1-(trifluoromethyl)-1H-pyrazol-4-yl)-1,6-dihydro-7H-pyrrolo[2,3-c]pyridin-7-one]
AUClast [1]: 4746 ng·h/mL and 2876 ng·h/mL and 7862 ng·h/mL
AUClast/D [1]: 4746 (ng · h/mL)/(mg/kg) and 2876 (ng · h/mL)/(mg/kg) and 7862 (ng · h/mL)/(mg/kg)
AUClnf [1]: 4892 ng·h/mL and 2944 ng·h/mL and 8955 ng·h/mL
AUC—%Extrap—obs [1]: 2.98% and 2.32% and 12.2%
C0 [1]: 1618 ng/mL and 1767 ng/mL
CI_obs [1]: 3.41 mL/min/kg and 5.66 mL/min/kg and 1.86 mL/min/kg
MRTlnf—obs [1]: 5.21 h and 4.15 h and 10.0 h
T1/2 [1]: 5.23 h and 8.60 h
Vss—obs [1]: 1.41 L/kg and 1.12 L/kg
AUClast/D (IV 1 mg/kg, mean): 5162 (ng · h/mL)/(mg/kg)
AUC—%Extrap—obs (IV 1 mg/kg, mean): 5.8%
CI_obs (IV 1 mg/kg, mean): 3.64 mL/min/kg
MRTlnf—obs (IV 1 mg/kg, mean): 6.5 h
time over which plasma concentration increased after oral administration (PO, all animals): 2 h
concentration at 0.083 h [2]: 1480 ng/mL
concentration at 0.083 h [3]: 1480 ng/mL
concentration at 0.25 h [2]: 1130 ng/mL
concentration at 0.25 h [3]: 1130 ng/mL
concentration at 0.5 h [2]: 971 ng/mL
concentration at 0.5 h [3]: 912 ng/mL
concentration at 1 h [2]: 802 ng/mL
concentration at 1 h [3]: 764 ng/mL
concentration at 2 h [2]: 594 ng/mL
concentration at 2 h [3]: 586 ng/mL
concentration at 4 h [4]: 293 ng/mL
concentration at 8 h [4]: 169 ng/mL
concentration at 24 h [4]: 38.7 ng/mL
half-life [5]: 5.26 h
C0 (beagle, dog, plasma, iv, 1 mg/kg, IV 1 mg/kg, individual animals, read-out: C0): 1690 ng/mL
Vd [5]: 1.06 L/kg
AUC [4]: 5600 ng·h/mL
AUC(0-t) [4]: 5160 ng·h/mL
half-life [4]: 6.37 h
C0 (beagle, dog, plasma, iv, 1 mg/kg, IV 1 mg/kg, mean, read-out: C0): 1690 ng/mL
Vd [4]: 1.2 L/kg
concentration at 0.25 h [6]: 25.1 ng/mL
concentration at 0.25 h [7]: 26.7 ng/mL
concentration at 0.5 h [6]: 147 ng/mL
concentration at 0.5 h [7]: 127 ng/mL
concentration at 1 h [7]: 293 ng/mL
concentration at 2 h [7]: 435 ng/mL
concentration at 4 h [8]: 369 ng/mL
concentration at 8 h [8]: 123 ng/mL
concentration at 24 h [8]: 29.9 ng/mL
AUC [9]: 4520 ng·h/mL
half-life [9]: 4.54 h
AUC [8]: 4270 ng·h/mL
AUC(0-t) [8]: 3500 ng·h/mL
half-life [8]: 4.07 h
Cmax (beagle, dog, plasma, po, 5 mg/kg, oral 5 mg/kg, mean, read-out: Cmax): 435 ng/mL
Tmax (beagle, dog, plasma, oral 5 mg/kg, individual animals): 2 h
AUClast [10]: 4398 ng·h/mL and 2122 ng·h/mL and 3976 ng·h/mL
AUClast/D [10]: 880 (ng · h/mL)/(mg/kg) and 424 (ng · h/mL)/(mg/kg) and 795 (ng · h/mL)/(mg/kg)
AUClnf [10]: 4019 ng·h/mL
AUC—%Extrap—obs [10]: 2.78% and 1.09%
Cmax [10]: 498 ng/mL and 228 ng/mL and 580 ng/mL
F [10]: 16.2% and 8.22% and 14.4%
MRTlnf—obs [10]: 6.47 h and 5.27 h
T1/2 [10]: 3.61 h
AUClast/D (oral 5 mg/kg, mean): 700 (ng · h/mL)/(mg/kg)
AUC—%Extrap—obs (oral 5 mg/kg, mean): 1.93%
F (oral 5 mg/kg, mean): 12.9%
MRTlnf—obs (oral 5 mg/kg, mean): 5.87 h
availability and tolerability (overall statement on the four dog PK studies): IV and orally available and well tolerated
